{
  "source": "patent US8569338B2",
  "about": "“Methods of using 4, 5, 6, 7-tetrahydroimidazo-[4,5-c]pyridine compounds” (Proximagen Ltd., priority 2008, dated 2013)",
  "data": [
    {"target": "purified recombinantly expressed human SSAO (Homo sapiens (Human), UniProt Q16853)", "sequence (Q16853 29-763)": "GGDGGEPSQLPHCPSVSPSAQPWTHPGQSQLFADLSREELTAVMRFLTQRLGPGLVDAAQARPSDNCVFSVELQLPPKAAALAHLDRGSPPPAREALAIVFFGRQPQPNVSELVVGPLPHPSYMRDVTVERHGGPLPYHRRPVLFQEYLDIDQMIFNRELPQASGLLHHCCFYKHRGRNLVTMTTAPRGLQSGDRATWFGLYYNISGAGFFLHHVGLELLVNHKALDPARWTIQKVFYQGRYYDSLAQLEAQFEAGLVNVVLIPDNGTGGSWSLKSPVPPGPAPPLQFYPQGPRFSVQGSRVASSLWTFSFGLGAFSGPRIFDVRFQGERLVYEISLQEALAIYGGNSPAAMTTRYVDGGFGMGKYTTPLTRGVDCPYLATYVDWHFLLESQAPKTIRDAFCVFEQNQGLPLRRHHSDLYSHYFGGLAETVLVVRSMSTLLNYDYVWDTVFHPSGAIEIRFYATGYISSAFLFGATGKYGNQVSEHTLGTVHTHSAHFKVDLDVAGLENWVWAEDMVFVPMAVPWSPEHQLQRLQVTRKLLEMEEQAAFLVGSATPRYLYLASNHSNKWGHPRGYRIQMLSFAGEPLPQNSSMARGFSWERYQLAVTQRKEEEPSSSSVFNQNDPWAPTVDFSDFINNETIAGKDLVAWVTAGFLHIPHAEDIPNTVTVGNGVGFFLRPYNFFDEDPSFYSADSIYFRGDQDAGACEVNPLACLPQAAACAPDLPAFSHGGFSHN", "assay": "SSAO enzyme inhibition assay (HRP-coupled Amplex Red, benzylamine substrate)", "assay_type": "biochemical", "details": "benzylamine 100 μM, approximately 60 minutes pre-incubation, pH 7.4, room temperature", "description": "Biological Assay of the SSAO Enzyme Inhibitors\nAll assays were performed in room temperature with purified recombinantly expressed human SSAO. Enzyme was prepared essentially as described in Ohman et al. (Protein Expression and Purification 2006, 46, 321-331). The enzyme activity was measured with benzylamine as substrate and utilized the production of hydrogen peroxide for detection. In a horseradish peroxidise (HRP) coupled reaction, hydrogen peroxide oxidation of 10-acetyl-3,7-dihydroxyphenoxazine produced resorufin, which is a highly fluorescent compound (Zhout and Panchuk-Voloshina. Analytical Biochemistry 1997, 253, 169-174; Amplex® Red Hydrogen Peroxide/peroxidise Assay kit, Invitrogen A22188).\nBriefly, test compounds were dissolved in dimethyl sulfoxide (DMSO) to a concentration of 10 mM. Dose-response measurements were assayed by either creating 1:10 serial dilutions in DMSO to produce a 7 point curve or by making 1:3 serial dilutions in DMSO to produce 11 point curves. The top concentrations were adjusted depending on the potency of the compounds and subsequent dilution in reaction buffer (50 mM sodium phosphate, pH 7.4) yielded a final DMSO concentration≦2%. Enzyme and compounds were set to pre-incubate in flat-bottomed microtiter plates for approximately 60 minutes before initiating the reaction by addition of a mixture of HRP, benzylamine and Amplex reagent. Fluorescence intensity was then measured at several time points (15 minutes, 20 minutes and 30 minutes) exciting at 544 nm and reading the emission at 590 nm). Final concentrations of the reagents in the assay wells were: SSAO enzyme 2 μg/ml, benzylamine 100 μM, Amplex reagent 20 μM, HRP 0.1 U/mL and varying concentrations of test compound. The inhibition was measured as % decrease of the signal compared to a control without inhibitor (only diluted DMSO). The background signal from a sample containing no SSAO enzyme was subtracted from all data points. Data was fitted to a four parameter logistic model and IC50 values were calculated using the GraphPad Prism 4 or XLfit 4 programs.", "units": {"IC50": "nM"}, "values": [
      {"compound": "CC(C)C1c2[nH]cnc2CCN1C(=O)OCCOc1ccccc1", "note": "(stereo not drawn) [Example 14, 2-Phenoxyethyl 4-isopropyl-1,4,6,7-tetrahydro-5H-imidazo[4,5-c]pyridine-5-carboxylate]", "IC50": 48},
      {"compound": "CC(C)C1c2[nH]cnc2CCN1C(=O)OCc1cccnc1", "note": "(stereo not drawn) [Example 7, Pyridin-3-ylmethyl 4-isopropyl-1,4,6,7-tetrahydro-5H-imidazo[4,5-c]pyridine-5-carboxylate]", "IC50": 34},
      {"compound": "CC(C)C1c2[nH]cnc2CCN1C(=O)OCC1CCOC1", "note": "(stereo not drawn) [Example 17, Tetrahydrofuran-3-ylmethyl 4-isopropyl-1,4,6,7-tetrahydro-5H-imidazo[4,5-c]-pyridine-5-carboxylate]", "IC50": 91}
    ]}
  ]
}
